From US10125121B2, “FYN kinase inhibitors” (ROTTAPHARM BIOTECH S.R.L., priority 2015, dated 2018)

What was measured:
CDK2 = CDK2 (Homo sapiens, UniProt P24941); experiment: Kinase selectivity panel by Cerep; conditions: read-out: inhibition of CDK2
[1] = test system: NF-kB activation in JB6 CI 41-5a (P+) cells; experiment: Gene reporter (GR) assay, NF-kB luciferase after TNFα stimulation; assay type: cell-based, murine; conditions: Mus musculus; 1 h pre-treatment, 2 ng/ml TNFα for 4 h; read-out: IC50(nM) GR Inhibition
From the text: To determine if the compounds of the invention were active also in a cellular model, a gene reporter assay was established in a cell line (JB6 CI 41-5a (P+)) know to activate Fyn kinase via an inflammatory stimuli (TNFα). GR assay measures the activation of the nuclear transcription factor NF-kB, situated down-stream the Fyn activation pathway. Products active in this analysis has to penetrate in the cell and inhibit the activation pathway of NF-kB.
The murine epithelial cell line JB6 CI 41-5a (P+) (ATCC® Cat. # CRL-2010) was stably transfected with the pGL4.32[luc2P/NFkB-RE/Hygro] vector (Promega). Clonal selection was achieved by limiting dilution in MEM (+Earle's BSS+1.5 g/l sodium bicarbonate+0.1 mM NEAA)+GlutaMAX™-I, +1 mM sodium pyruvate, +5% FBS+80 μg/ml Hygromycin B. The clones were tested for their response to TNFα stimulus. The obtained transfected cells (JB6(P+) NFkB-RE-luc2P T3-C10) contained a firefly luciferase gene (luc2P) under the control of minimal TATA promoter with multiple Nuclear Factor-kB response elements (NFkB-REs). These NFkB-REs are DNA binding sequences for the NF-kB transcription factor.
JB6(P+) NFkB-RE-luc2P T3-C10 cells were used for the analysis of NF-kB activity modulation, after TNFα stimulation, by Fyn-inhibitors (Hwang et al.; Biochem. Pharmacol. 2009, 77 (7):1213-22).
6000 cells/well were plated in a 96× well plate. After 24 h new medium without antibiotics was given. After further 24 h the cells were pre-treated with the different compounds for 1 h and then stimulated with 2 ng/ml TNFα for 4 h. In each experiments two positive standards were always used, and each tested condition was analyzed in quadruplicate.
The luciferase analysis was performed with ONE-Glo™+ToxLuciferase Reporter and Cell Viability Assay kit (Promega). This assay combined luciferase assay chemistry with a cell viability marker to better understand reporter gene expression in the context of cell health. The assay uses a two-step process. The first part of the assay was a non-lytic fluorescence assay (CellTiter-Fluor™ Cell Viability Assay) that measured the relative number of live cells in a culture population, as it measures a conserved and constitutive protease activity within live cells. The live-cell protease activity was restricted to intact viable cells and was measured using a fluorogenic, cell-permeant peptide substrate (glycyl-phenylalanyl-aminofluorocoumarin; GF-AFC). The generated fluorescent signal, proportional to the number of living cells, was measured with EnVision microplate reader (PerkinElmer) using an excitation wavelength of 400 nm and emission wavelength of 500 nm.
The second part of the assay uses the ONE-Glo™ Luciferase Assay System to quantify firefly luciferase reporter gene expression. The ONE-Glo™ Assay contained a fluoro-luciferin substrate, more tolerant to sample components than standard luciferase assay reagents. Luminescence was measured with EnVision microplate reader (PerkinElmer).
Compounds of Formula (I) were tested for their capacity to penetrate into the cell and inhibit the activation pathway of NF-kB.

[2] = test system: other kinases examined of the SRC family; experiment: Kinase selectivity panel by Cerep
YES = YES (Homo sapiens, UniProt P07947); experiment: Kinase selectivity panel by Cerep
LCK = LCK (Homo sapiens, UniProt P06239); experiment: Kinase selectivity panel by Cerep
[3] = test system: mechanical hyperalgesia in meniscal tear osteoarthritis; experiment: Surgically induced meniscal tear osteoarthritis in the rat (MMT); assay type: in vivo
From the text: Male Sprague Dawley rats (Charles River) approximately 350 g body weight were used. Rats were anesthetized using 2.5% isoflurane in oxygen with a flow rate of 1 I per minute. The right hind leg was shaved and surgically prepared. The medial collateral ligament was exposed and transected. The meniscus was grasped with a hemostat and reflected proximally toward the femur. The meniscus was cut through its full thickness at the narrowest point. The connective tissue layer and the skin were closed with coated Vicryl 8-0 and 4-0 silk sutures, respectively. Sham operated animals underwent an identical procedure with the exception that the medial collateral ligament was exposed but not transected. After a recovery period of 2 weeks, mechanical hyperalgesia was evaluated for the following 4 weeks, once a week, before and 90 minutes after drugs administration. Pharmacological oral treatment was performed for 28 days, starting from 14 days after surgery. After 6 weeks from surgery, rats (ten animals per group) were sacrificed and the ipsilateral knee was removed for histopathological analysis.
The maximum possible effect (MPE %) was calculated by the following formula: 100*(Compound−Vehicle)/(Sham−Vehicle)

Pharmacokinetics in rats = assay type: in vivo, rat; conditions: rat, in vivo, po, 1 mg/kg orally
[4] = 10 mg/kg daily orally, day 21 post surgery
[5] = 10 mg/kg daily orally, day 28 post surgery
[6] = 10 mg/kg daily orally, day 35 post surgery
[7] = 10 mg/kg daily orally, day 42 post surgery
[8] = 30 mg/kg daily orally, day 21 post surgery
[9] = 30 mg/kg daily orally, day 28 post surgery
[10] = 30 mg/kg daily orally, day 35 post surgery
[11] = 30 mg/kg daily orally, day 42 post surgery

Chain of LCK (P06239 whole entry): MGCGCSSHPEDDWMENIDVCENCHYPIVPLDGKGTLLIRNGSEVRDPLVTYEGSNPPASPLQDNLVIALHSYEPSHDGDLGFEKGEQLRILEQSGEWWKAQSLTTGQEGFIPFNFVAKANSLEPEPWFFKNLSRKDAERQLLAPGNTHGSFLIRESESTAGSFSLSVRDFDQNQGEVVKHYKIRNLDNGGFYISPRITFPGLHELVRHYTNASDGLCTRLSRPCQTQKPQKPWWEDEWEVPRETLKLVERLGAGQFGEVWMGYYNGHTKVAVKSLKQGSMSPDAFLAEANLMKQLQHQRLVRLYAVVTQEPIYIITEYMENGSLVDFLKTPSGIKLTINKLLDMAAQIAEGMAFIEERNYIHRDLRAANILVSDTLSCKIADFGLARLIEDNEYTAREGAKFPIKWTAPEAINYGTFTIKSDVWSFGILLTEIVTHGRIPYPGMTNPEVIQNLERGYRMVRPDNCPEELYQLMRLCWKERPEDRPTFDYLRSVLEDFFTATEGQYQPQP
Chain of YES (P07947 whole entry): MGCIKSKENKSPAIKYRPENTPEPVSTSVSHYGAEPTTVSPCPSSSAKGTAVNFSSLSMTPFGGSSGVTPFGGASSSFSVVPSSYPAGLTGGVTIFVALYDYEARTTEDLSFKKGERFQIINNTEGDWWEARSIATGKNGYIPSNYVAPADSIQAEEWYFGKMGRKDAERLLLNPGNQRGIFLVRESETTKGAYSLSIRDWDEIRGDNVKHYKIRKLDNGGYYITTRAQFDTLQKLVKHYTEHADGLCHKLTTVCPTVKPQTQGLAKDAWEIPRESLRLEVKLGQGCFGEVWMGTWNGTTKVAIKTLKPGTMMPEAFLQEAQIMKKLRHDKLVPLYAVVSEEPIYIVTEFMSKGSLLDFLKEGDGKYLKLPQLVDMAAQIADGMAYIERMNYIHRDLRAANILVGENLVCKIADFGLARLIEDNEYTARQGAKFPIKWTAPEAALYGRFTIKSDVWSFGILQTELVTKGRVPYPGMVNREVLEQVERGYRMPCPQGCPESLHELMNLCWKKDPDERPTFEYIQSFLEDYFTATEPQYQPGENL

SMILES: O=C(Nc1ccc(CN2CCN(c3nccc(Nc4cc(C5CC5)[nH]n4)n3)CC2)cc1)c1ccccc1C(F)(F)F [Compound 2, N-(4-((4-(4-((5-cyclopropyl-1H-pyrazol-3-yl)amino)pyrimidin-2-yl)piperazin-1-yl)methyl)phenyl)-2-(trifluoromethyl)-benzamide]
- inhibition at 0.1 µM (CDK2): > 50%
- IC50 [1]: 190 nM
- average potency ratio (other SRC family kinases vs FYN) [2]: about 100
- IC50 ([2]; read-out: IC50, all other kinases examined of the SRC family): > 100 nM
- IC50 (YES): 270 nM
- IC50 (LCK): 450 nM
- Pain threshold ([3]; 10 mg/kg daily orally, day 14 post surgery): 308 g
- Pain threshold [3, 4]: 333 g
- Pain threshold: MPE (%) [3, 4]: 30.5%
- Pain threshold [3, 5]: 323 g
- Pain threshold: MPE (%) [3, 5]: 22.6%
- Pain threshold [3, 6]: 313 g
- Pain threshold: MPE (%) [3, 6]: 18.2%
- Pain threshold [3, 7]: 298 g
- Pain threshold: MPE (%) [3, 7]: 21%
- Pain threshold ([3]; 30 mg/kg daily orally, day 14 post surgery): 305 g
- Pain threshold [3, 8]: 358 g
- Pain threshold: MPE (%) [3, 8]: 44%
- Pain threshold [3, 9]: 343 g
- Pain threshold: MPE (%) [3, 9]: 35.5%
- Pain threshold [3, 10]: 335 g
- Pain threshold: MPE (%) [3, 10]: 38.2%
- Pain threshold [3, 11]: 320 g
- Pain threshold: MPE (%) [3, 11]: 43%
- bioavailability (Pharmacokinetics in rats): 51%
- AUC(0-t) (Pharmacokinetics in rats; read-out: AUC (0-24 h)): 877 ng·h/mL
